# According to the supplement of paper PMC10307832:
# How the values were obtained:
# Test in all cases: relative viability (nuclei count vs DMSO), 5 days (fraction); higher = more cells survive
# ChaGo-K-1 = tested on: ChaGo-K-1
# Method in brief: (§1)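 Nuclei were stained with Hoechst during a one-step fixation (final 0.05% Triton X-100, 1% formaldehyde, 1 ug/ml Hoechst) carried out 5 days after dosing, then counted on 4× images. The cells, lung cancer lines in 1536-well plates, had been dosed by pin tool the day after seeding with one drug alone or a fixed anchor-drug dose plus five library-drug doses (not always all listed) in √10 steps. Relative viability is the nuclei count in treated wells divided by that in vehicle wells, and each value is the median of duplicate plates.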
# EKVX = tested on: EKVX
# Method in brief: as §1
# EPLC-272H = tested on: EPLC-272H
# Method in brief: as §1
# H3255 = tested on: H3255
# Method in brief: as §1
# HCC-827 = tested on: HCC-827
# Method in brief: as §1
# HOP-62 = tested on: HOP-62
# Method in brief: as §1
# LCLC-97TM1 = tested on: LCLC-97TM1
# Method in brief: as §1
# LK-2 = tested on: LK-2
# Method in brief: as §1
# LU99A = tested on: LU99A
# Method in brief: as §1
# LXF-289 = tested on: LXF-289
# Method in brief: as §1
# NCI-H1355 = tested on: NCI-H1355
# Method in brief: as §1
# NCI-H1650 = tested on: NCI-H1650
# Method in brief: as §1
# NCI-H1993 = tested on: NCI-H1993
# Method in brief: as §1
# NCI-H2170 = tested on: NCI-H2170
# Method in brief: as §1
# NCI-H2228 = tested on: NCI-H2228
# Method in brief: as §1
# NCI-H2405 = tested on: NCI-H2405
# Method in brief: as §1
# NCI-H3122 = tested on: NCI-H3122
# Method in brief: as §1
# NCI-H441 = tested on: NCI-H441
# Method in brief: as §1
# NCI-H522 = tested on: NCI-H522
# Method in brief: as §1
# PC-3 [JPC-3] = tested on: PC-3 [JPC-3]
# Method in brief: as §1
# SK-LU-1 = tested on: SK-LU-1
# Method in brief: as §1
# SW 1573 = tested on: SW 1573
# Method in brief: as §1
# UMC-11 = tested on: UMC-11
# Method in brief: as §1
structure (smiles),measurement,setting,value
Cc1cn(-c2cc(NC(=O)c3ccc(C)c(Nc4nccc(-c5cccnc5)n4)c3)cc(C(F)(F)F)c2)cn1 [Nilotinib] + COc1cccc2cc(-c3nc([C@H]4CC[C@H](C(=O)O)CC4)n4ncnc(N)c34)[nH]c12 [OSI-027] (partner 0.5 µM),relative viability,ChaGo-K-1; first compound 0.001 µM,0.49
same,relative viability,ChaGo-K-1; first compound 0.003162 µM,0.643
same,relative viability,ChaGo-K-1; first compound 0.01 µM,0.485
same,relative viability,ChaGo-K-1; first compound 0.03162 µM,0.471
same,relative viability,ChaGo-K-1; first compound 0.1 µM,0.274
same,relative viability,EKVX; first compound 0.001 µM,0.541
same,relative viability,EKVX; first compound 0.003162 µM,0.719
same,relative viability,EKVX; first compound 0.01 µM,0.904
same,relative viability,EKVX; first compound 0.03162 µM,0.665
same,relative viability,EKVX; first compound 0.1 µM,0.671
same,relative viability,EPLC-272H; first compound 0.001 µM,0.24
same,relative viability,EPLC-272H; first compound 0.003162 µM,0.275
same,relative viability,EPLC-272H; first compound 0.01 µM,0.325
same,relative viability,EPLC-272H; first compound 0.03162 µM,0.246
same,relative viability,EPLC-272H; first compound 0.1 µM,0.177
same,relative viability,H3255; first compound 0.001 µM,0.547
same,relative viability,H3255; first compound 0.003162 µM,0.566
same,relative viability,H3255; first compound 0.03162 µM,0.501
same,relative viability,H3255; first compound 0.1 µM,0.621
same,relative viability,HCC-827; first compound 0.003162 µM,0.822
same,relative viability,HCC-827; first compound 0.01 µM,0.85
same,relative viability,HCC-827; first compound 0.03162 µM,0.603
same,relative viability,HOP-62; first compound 0.001 µM,0.699
same,relative viability,HOP-62; first compound 0.003162 µM,0.831
same,relative viability,HOP-62; first compound 0.01 µM,0.909
same,relative viability,HOP-62; first compound 0.03162 µM,0.581
same,relative viability,HOP-62; first compound 0.1 µM,0.559
same,relative viability,LCLC-97TM1; first compound 0.001 µM,0.552
same,relative viability,LCLC-97TM1; first compound 0.003162 µM,0.559
same,relative viability,LCLC-97TM1; first compound 0.01 µM,0.479
same,relative viability,LCLC-97TM1; first compound 0.03162 µM,0.432
same,relative viability,LCLC-97TM1; first compound 0.1 µM,0.467
same,relative viability,LK-2; first compound 0.001 µM,0.209
same,relative viability,LK-2; first compound 0.003162 µM,0.174
same,relative viability,LK-2; first compound 0.01 µM,0.184
same,relative viability,LK-2; first compound 0.03162 µM,0.178
same,relative viability,LK-2; first compound 0.1 µM,0.187
same,relative viability,LU99A; first compound 0.001 µM,0.272
same,relative viability,LU99A; first compound 0.003162 µM,0.304
same,relative viability,LU99A; first compound 0.01 µM,0.256
same,relative viability,LU99A; first compound 0.03162 µM,0.313
same,relative viability,LU99A; first compound 0.1 µM,0.273
same,relative viability,LXF-289; first compound 0.001 µM,0.807
same,relative viability,LXF-289; first compound 0.003162 µM,0.965
same,relative viability,LXF-289; first compound 0.01 µM,0.94
same,relative viability,LXF-289; first compound 0.03162 µM,0.826
same,relative viability,LXF-289; first compound 0.1 µM,0.532
same,relative viability,NCI-H1355; first compound 0.001 µM,0.384
same,relative viability,NCI-H1355; first compound 0.003162 µM,0.388
same,relative viability,NCI-H1355; first compound 0.01 µM,0.324
same,relative viability,NCI-H1355; first compound 0.03162 µM,0.314
same,relative viability,NCI-H1355; first compound 0.1 µM,0.329
same,relative viability,NCI-H1650; first compound 0.001 µM,0.691
same,relative viability,NCI-H1650; first compound 0.003162 µM,0.792
same,relative viability,NCI-H1650; first compound 0.01 µM,0.569
same,relative viability,NCI-H1650; first compound 0.03162 µM,0.464
same,relative viability,NCI-H1650; first compound 0.1 µM,0.426
same,relative viability,NCI-H1993; first compound 0.001 µM,0.547
same,relative viability,NCI-H1993; first compound 0.003162 µM,0.551
same,relative viability,NCI-H1993; first compound 0.01 µM,0.536
same,relative viability,NCI-H1993; first compound 0.03162 µM,0.487
same,relative viability,NCI-H1993; first compound 0.1 µM,0.562
same,relative viability,NCI-H2170; first compound 0.001 µM,0.662
same,relative viability,NCI-H2170; first compound 0.003162 µM,0.589
same,relative viability,NCI-H2170; first compound 0.01 µM,0.832
same,relative viability,NCI-H2170; first compound 0.03162 µM,0.828
same,relative viability,NCI-H2170; first compound 0.1 µM,0.563
same,relative viability,NCI-H2228; first compound 0.003162 µM,0.631
same,relative viability,NCI-H2228; first compound 0.01 µM,0.588
same,relative viability,NCI-H2228; first compound 0.03162 µM,0.449
same,relative viability,NCI-H2228; first compound 0.1 µM,0.217
same,relative viability,NCI-H2405; first compound 0.001 µM,0.594
same,relative viability,NCI-H2405; first compound 0.003162 µM,0.617
same,relative viability,NCI-H2405; first compound 0.01 µM,0.568
same,relative viability,NCI-H2405; first compound 0.03162 µM,0.609
same,relative viability,NCI-H2405; first compound 0.1 µM,0.432
same,relative viability,NCI-H3122; first compound 0.001 µM,0.961
same,relative viability,NCI-H3122; first compound 0.003162 µM,1.33
same,relative viability,NCI-H3122; first compound 0.01 µM,1.24
same,relative viability,NCI-H3122; first compound 0.03162 µM,0.66
same,relative viability,NCI-H3122; first compound 0.1 µM,0.467
same,relative viability,NCI-H441; first compound 0.001 µM,0.524
same,relative viability,NCI-H441; first compound 0.003162 µM,0.743
same,relative viability,NCI-H441; first compound 0.01 µM,0.52
same,relative viability,NCI-H441; first compound 0.03162 µM,0.499
same,relative viability,NCI-H441; first compound 0.1 µM,0.483
same,relative viability,NCI-H522; first compound 0.001 µM,0.67
same,relative viability,NCI-H522; first compound 0.003162 µM,0.648
same,relative viability,NCI-H522; first compound 0.01 µM,0.754
same,relative viability,NCI-H522; first compound 0.03162 µM,0.665
same,relative viability,NCI-H522; first compound 0.1 µM,0.61
same,relative viability,PC-3 [JPC-3]; first compound 0.001 µM,0.702
same,relative viability,PC-3 [JPC-3]; first compound 0.003162 µM,0.838
same,relative viability,PC-3 [JPC-3]; first compound 0.01 µM,0.785
same,relative viability,PC-3 [JPC-3]; first compound 0.03162 µM,0.703
same,relative viability,PC-3 [JPC-3]; first compound 0.1 µM,0.475
same,relative viability,SK-LU-1; first compound 0.001 µM,0.313
same,relative viability,SK-LU-1; first compound 0.003162 µM,0.322
same,relative viability,SK-LU-1; first compound 0.01 µM,0.302
same,relative viability,SK-LU-1; first compound 0.03162 µM,0.258
same,relative viability,SK-LU-1; first compound 0.1 µM,0.265
same,relative viability,SW 1573; first compound 0.001 µM,0.566
same,relative viability,SW 1573; first compound 0.003162 µM,0.751
same,relative viability,SW 1573; first compound 0.01 µM,0.72
same,relative viability,SW 1573; first compound 0.03162 µM,0.276
same,relative viability,SW 1573; first compound 0.1 µM,0.155
same,relative viability,UMC-11; first compound 0.001 µM,0.482
same,relative viability,UMC-11; first compound 0.003162 µM,0.527
same,relative viability,UMC-11; first compound 0.01 µM,0.432
same,relative viability,UMC-11; first compound 0.1 µM,0.246
